ChEMBL document CHEMBL5620360, “Design, synthesis and biological evaluation of 4-(4-aminophenoxy)picolinamide derivatives as potential antitumor agents” (Eur J Med Chem, 2023)

Key:
A549 [1] = test: Induction of apoptosis in human A549 cells assessed as viable cells at […] measured after 24 hrs by AnnexinV-FITC/PI staining based flow cytometry (reference value: 93.25%); format: functional; details: dose 2.5 µM, read-out: Activity
A549 [2] = test: Induction of apoptosis in human A549 cells assessed as late apoptotic cells at […] measured after 24 hrs by AnnexinV-FITC/PI staining based flow cytometry (reference value: 1.47%); format: functional; details: dose 2.5 µM
A549 [3] = test: Induction of apoptosis in human A549 cells assessed as necrotic cells at […] measured after 24 hrs by AnnexinV-FITC/PI staining based flow cytometry (reference value: 4.01%); format: functional; details: dose 2.5 µM
A549 [4] = test: Induction of apoptosis in human A549 cells assessed as late apoptotic cells at 5 uM measured after 24 hrs by AnnexinV-FITC/PI staining based flow cytometry (reference value: 1.47%); format: functional
A549 [5] = test: Induction of apoptosis in human A549 cells assessed as necrotic cells at 5 uM measured after 24 hrs by AnnexinV-FITC/PI staining based flow cytometry (reference value: 4.01%); format: functional
A549 [6] = test: Induction of apoptosis in human A549 cells assessed as necrotic cells at 10 uM measured after 24 hrs by AnnexinV-FITC/PI staining based flow cytometry (reference value: 4.01%); format: functional
A549 [7] = test: Induction of cell cycle arrest in human A549 cells assessed as accumulation of cells at G1 phase at 5 uM incubated for 24 hrs by propidium iodide staining based flow cytometry (reference value: 54.46%); format: functional
A549 [8] = test: Induction of cell cycle arrest in human A549 cells assessed as accumulation of cells at G1 phase at 10 uM incubated for 24 hrs by propidium iodide staining based flow cytometry (reference value: 54.46%); format: functional
A549 [9] = test: Induction of cell cycle arrest in human A549 cells assessed as accumulation of cells at G2 phase at 10 uM incubated for 24 hrs by propidium iodide staining based flow cytometry (reference value: 7.36%); format: functional
[10] = AUC(0 to infinity) in Sprague-Dawley rat at 1 mg/kg, iv by LC-MS/MS analysis; format: ADME, organism-based; details: in vivo
[11] = AUC(0 to t) in Sprague-Dawley rat at 10 mg/kg, po by LC-MS/MS analysis; format: ADME, organism-based; details: in vivo
[12] = AUC(0 to infinity) in Sprague-Dawley rat at 10 mg/kg, po by LC-MS/MS analysis; format: ADME, organism-based; details: in vivo
[13] = Tmax in Sprague-Dawley rat at 10 mg/kg, po by LC-MS/MS analysis; format: ADME, organism-based; details: in vivo
[14] = biological target: Vascular endothelial growth factor receptor 2 (Homo sapiens, UniProt P35968); test: Inhibition of VEGFR2 (unknown origin)
Sequence of Vascular endothelial growth factor receptor 2 (P35968 whole entry): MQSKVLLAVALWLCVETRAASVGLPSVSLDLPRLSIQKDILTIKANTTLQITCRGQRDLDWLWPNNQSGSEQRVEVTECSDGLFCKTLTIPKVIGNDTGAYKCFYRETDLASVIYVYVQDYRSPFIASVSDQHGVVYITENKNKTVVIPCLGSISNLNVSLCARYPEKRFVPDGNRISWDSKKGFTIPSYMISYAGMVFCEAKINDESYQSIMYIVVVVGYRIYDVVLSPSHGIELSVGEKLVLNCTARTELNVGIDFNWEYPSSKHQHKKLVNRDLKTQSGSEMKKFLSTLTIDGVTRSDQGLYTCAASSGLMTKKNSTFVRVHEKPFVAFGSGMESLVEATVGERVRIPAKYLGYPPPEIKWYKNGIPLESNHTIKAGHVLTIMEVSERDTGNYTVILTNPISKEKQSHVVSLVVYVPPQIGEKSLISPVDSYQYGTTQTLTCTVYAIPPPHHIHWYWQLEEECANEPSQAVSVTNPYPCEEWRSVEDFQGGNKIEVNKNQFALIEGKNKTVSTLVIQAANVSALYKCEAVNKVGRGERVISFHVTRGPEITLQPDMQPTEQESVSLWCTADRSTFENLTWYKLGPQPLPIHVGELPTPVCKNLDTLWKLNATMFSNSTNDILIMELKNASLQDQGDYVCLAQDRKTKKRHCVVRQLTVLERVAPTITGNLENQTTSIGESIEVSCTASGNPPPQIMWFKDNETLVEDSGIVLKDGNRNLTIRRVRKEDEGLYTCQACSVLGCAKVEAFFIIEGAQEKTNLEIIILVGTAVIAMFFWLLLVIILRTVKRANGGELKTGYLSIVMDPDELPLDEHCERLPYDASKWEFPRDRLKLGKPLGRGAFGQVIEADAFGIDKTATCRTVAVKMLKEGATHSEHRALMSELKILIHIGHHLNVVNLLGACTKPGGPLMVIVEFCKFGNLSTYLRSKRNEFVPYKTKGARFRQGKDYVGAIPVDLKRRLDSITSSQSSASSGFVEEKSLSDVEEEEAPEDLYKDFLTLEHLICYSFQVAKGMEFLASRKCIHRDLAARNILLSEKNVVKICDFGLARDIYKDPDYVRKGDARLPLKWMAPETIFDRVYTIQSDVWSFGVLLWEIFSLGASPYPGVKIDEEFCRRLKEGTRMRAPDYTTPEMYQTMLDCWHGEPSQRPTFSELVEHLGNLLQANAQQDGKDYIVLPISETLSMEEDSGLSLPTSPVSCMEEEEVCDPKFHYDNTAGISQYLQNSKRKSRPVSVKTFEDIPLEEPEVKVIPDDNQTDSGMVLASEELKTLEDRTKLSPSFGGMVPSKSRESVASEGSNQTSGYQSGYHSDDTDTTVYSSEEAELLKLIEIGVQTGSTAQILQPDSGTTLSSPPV

SMILES: O=C(NCCCN1CCOCC1)c1cc(Oc2ccc(NC(=O)c3cn(-c4ccc(F)c(Cl)c4)c4ncccc4c3=O)cc2F)ccn1
- viability at […] (A549 [1]): 93.1%
- Activity (A549 [2]): 2.02%
- Activity (A549 [3]): 3.34%
- Activity (A549 [4]): 4.29%
- Activity (A549 [5]): 7.49%
- Activity (A549 [6]): 11.9%
- Activity (A549 [7]): 57.38%
- Activity (A549 [8]): 58.67%
- Activity (A549 [9]): 12.65%
- AUC(0-inf) [10]: 2870 ng·h/mL
- AUC(0-t) [11]: 3320 ng·h/mL
- AUC(0-inf) [12]: 3400 ng·h/mL
- Tmax [13]: 2.7 h
- IC50 [14]: > 100 µM
